According to patent US20210077498A1, “TRANSIENT PROTECTION OF HEMATOPOIETIC STEM AND PROGENITOR CELLS AGAINST IONIZING RADIATION” (G1 Therapeutics, Inc., priority 2015, published 2021):

Assays:
[1] = test system: CDK4/6 independent Rb-null melanoma cell line A2058; settings: cited from earlier work
[2] = in vivo; cited from earlier work
[3] = test system: CDK4/6-dependent cell lines; settings: cited from earlier work
[4] = test system: mice exposed to peri-lethal and lethal TBI; settings: compared to untreated controls; cited from earlier work
[5] = test system: tHS68 cells; experiment: g-H2A.X assay after irradiation; format: cell-based; settings: 100, 300 or 1,000 nM after 6, 8 or 10 Gy
Method: (§1) DNA damage was determined using the g-H2A.X assay and apoptosis was determined with a Caspase 3/7 assay. For the g-H2AX assay, tHS68 cells were fixed and stained using the g-H2A.X Phosphorylation Assay Kit (Flow Cytometry; Millipore, Temecula, Calif.) by the manufacturer's instructions. g-H2AX-positive tHDF cells were then quantified using a CyAn ADP Analyzer (Beckman Coulter, Indianapolis, Ind.) and FlowJo analysis software (Version 7.2.2; Tree Star, Ashland, Oreg.). For the in vitro caspase 3/7 assay, tHDF cells were analyzed directly in the 96-well plates 24 hours after radiation or staurosporine treatment. Caspase 3/7 activation was measured using the Caspase-Glo 3/7 Assay System (Promega, Madison, Wis.) by following the manufacturer's instructions.
(§2) For the g-H2AX assay, 30,000 cells were plated per well in 12-well plates. For the caspase 3/7 assay, 1,000 cells were plated per well in 96-well white wall clear bottom plates. Cells were incubated at 37° C. in a humidified atmosphere of 5% CO2 for 24 hours and then irradiated at 6 Gy, 8 Gy, or 10 Gy.

[6] = test system: 456 (395 non-mutant) kinases; experiment: DiscoveRx KINOMEscan profiling; format: binding; settings: single concentration of 1000 nM
[7] = test system: HS68 cells; experiment: G1 arrest (cellular G1 and S-phase) assay, propidium iodide flow cytometry; format: cell-based; settings: Homo sapiens
Method: For determination of cellular fractions in various stages of the cell cycle following various treatments, HS68 cells (human skin fibroblast cell line (Rb-positive)) were stained with propidium iodide staining solution and run on Dako Cyan Flow Cytometer. The fraction of cells in G0-G1 DNA cell cycle versus the fraction in S-phase DNA cell cycle was determined using FlowJo 7.2.2 analysis.
Formulas I, II, III, and IV were tested for their ability to arrest HS68 cells at the G1 phase of the cell cycle.

[8] = test system: tHS68 cells; experiment: Cell cycle arrest in CDK4/6-dependent cells, propidium iodide flow cytometry; format: cell-based
Text: To test the ability of CDK4/6 inhibitors to induce a clean G1-arrest, a cell based screening method was used consisting of two CDK4/6-dependent cell lines (tHS68 and WM2664; Rb-positive) and one CDK4/6-independent (A2058; Rb-negative) cell line. […] At the conclusion of the experiment, cells were harvested, fixed, and stained with propidium iodide (a DNA intercalator), which fluoresces strongly red (emission maximum 637 nm) when excited by 488 nm light. Samples were run on Dako Cyan flow cytometer and >10,000 events were collected for each sample. Data were analyzed using FlowJo 2.2 software developed by TreeStar, Inc.

[9] = test system: RB-negative SCLC cell lines (H69, H82, H209, H345, NCI417, SHP-77); experiment: Proliferation by EdU incorporation, RB-negative SCLC cell lines; format: cell-based; settings: 24 hours; PD0332991 300 nM, Formula I and III 300 nM or 1000 nM
Method: (§3) SCLC cells were treated with DMSO or the indicated CDK4/6 inhibitor for 24 hours. The effect of CDK4/6 inhibition on proliferation was measured by EdU incorporation. An RB-intact, CDK4/6-dependent cell line (WM2664 or tHS68) and a panel of RB-negative SCLC cell lines (H69, H82, H209, H345, NCI417, or SHP-77) were analyzed for growth inhibition by the various CDK4/6 inhibitors.

[10] = test system: H69 (human small cell lung cancer, Rb-negative) cells; experiment: CellTiter-Glo cellular proliferation assay, H69; format: cell-based; settings: NCI-H69, 96 h, four days
Method: (§4) Cellular proliferation assays were conducted using the following Rb-negative cancer cell lines: H69 (human small cell lung cancer—Rb-negative) cells or A2058 (human metastatic melanoma cells—Rb-negative). These cells were seeded in Costar (Tewksbury, Mass.) 3093 96 well tissue culture treated white walled/clear bottom plates. Cells were treated Formulas I, II, III, or IV as nine point dose response dilution series from 10 uM to 1 nM. Cells were exposed to compounds and then cell viability was determined after either four (H69) or six (A2058) days as indicated using the CellTiter-Glo® luminescent cell viability assay (CTG; Promega, Madison, Wis., United States of America) following the manufacturer's recommendations. Plates were read on BioTek (Winooski, Vt.) Syngergy2 multi-mode plate reader. The Relative Light Units (RLU) were plotted as a result of variable molar concentration and data was analyzed using Graphpad (LaJolla, Californaia) Prism 5 statistical software to determine the EC50 for each compound.

[11] = test system: mice after total body irradiation; experiment: Radiomitigation, survival after total body irradiation; format: in vivo
Method: Wild-type mice, young adult (8-12 weeks of age) C57BL/6 (The Jackson Laboratory) or C3H (Harlan Sprague-Dawley) animals were used. Animals were irradiated using a 137Cs AECL GammaCell 40 Irradiator (Atomic Energy of Canada) or a XRAD320 (Precision XRay Inc.) biological irradiator. Experiments were carried out using the 137Cs source, unless otherwise noted.

[12] = test system: tHDF cells; experiment: Caspase 3/7 assay after irradiation; format: cell-based; settings: 100, 300 or 1,000 nM after 6, 8 or 10 Gy
Method: as §1, §2

[13] = Metabolic stability in liver microsomes; format: in vitro ADME, and mouse; settings: each of the species tested (human, monkey, dog, rat, mouse); 1 uM, 0.5 mg/mL microsomes
Method: Human, mouse, and dog liver microsomes were purchased from Xenotech, and Sprague-Dawley rat liver microsomes were prepared by Absorption Systems. The reaction mixture comprising 0.5 mg/mL of liver microsomes, 100 mM of potassium phosphate, pH 7.4, 5 mM of magnesium chloride, and 1 uM of test compound was prepared. The test compound was added into the reaction mixture at a final concentration of 1 uM. An aliquot of the reaction mixture (without cofactor) was incubated in shaking water bath at 37 deg. C. for 3 minutes. The control compound, testosterone, was run simultaneously with the test compound in a separate reaction. The reaction was initiated by the addition of cofactor (NADPH), and the mixture was then incubated in a shaking water bath at 37 deg. C. Aliquots (100 μL) were withdrawn at 0, 10, 20, 30, and 60 minutes for the test compound and 0, 10, 30, and 60 minutes for testosterone. […] Test compound samples were analyzed using the Orbitrap high resolution mass spectrometer to quantify the disappearance of parent test compound and detect the appearance of metabolites. […] Half-lives were calculated using GraphPad software, fitting to a single-phase exponential decay equation.
When calculated half-life was longer than the duration of the experiment, the half-life was expressed as > the longest incubation time. The calculated half-life is also listed in parentheses. […]

[14] = test system: A2058 (human metastatic melanoma cells, Rb-negative); experiment: CellTiter-Glo cellular proliferation assay, A2058; format: cell-based; settings: A2058, 144 h, six days
Method: as §4

[15] = test system: WM2664 or tHS68; experiment: Proliferation by EdU incorporation, RB-intact CDK4/6-dependent cell line; format: cell-based; settings: 24 hours; WM2664 for PD0332991 (300 nM), tHS68 for Formula I and III (300 nM or 1000 nM)
Method: as §3

[16] = single oral dose 150 mg/kg 12 hours after exposure

O=C1NC(=O)c2c1c1c3ccccc3[nH]c1c1[nH]c3cc(Br)ccc3c21 [Formula 2BrIC, 2-bromo-12,13-dihydro-5H-indolo[2,3-a]pyrrolo[3,4]carbazole-5,6-dione]
G1 arrest [1]: did not G1 arrest
protection from IR exposure [1]: failed to protect
bioavailability [2]: restricted bioavailability
IR protection [3]: exhibited IR protective characteristics
HSPC protection and survival after TBI [4]: protect HSPCs and improve survival of mice

CN1CCN(c2ccc(Nc3ncc4cc5n(c4n3)C3(CCCCC3)CNC5=O)nc2)CC1 [Formula I, 2′-((5-(4-methylpiperazin-1-yl)pyridin-2-yl)amino)-7′,8′-dihydro-6′H-spiro[cyclohexane-1,9′-pyrazino[1′,2′:1,5]pyrrolo[2,3-d]pyrimidin]-6′-one]
radiation induced DNA damage (H2AX foci) [5]: dose dependent decrease in radiation induced DNA damage
number of 395 non-mutant kinases inhibited, threshold 65% ([6]; inhibitory threshold 65%): 92
number of 395 non-mutant kinases inhibited, threshold 90% ([6]; inhibitory threshold 90%): 31
number of 395 non-mutant kinases inhibited, threshold 99% ([6]; inhibitory threshold 99%): 6
EC50 [7]: 100 nM
cells in S-phase at the highest concentration shown ([8]; tHS68, 24 hours, 28% at baseline): 6%
EC50 ([8]; tHS68 cells, 24 hours, read-out: G1 cell cycle arrest EC50): 80 nM
effect on growth (cells in S phase, EdU) of Rb-negative SCLC cell lines [9]: does not affect the growth
EC50 [10]: > 3000 nM
survival after 7.5 Gy TBI, two doses ([11]; 150 mg/kg oral at 12 hours and 24 hours post TBI): Survival was also enhanced
survival after 7.2 Gy TBI [11, 16]: provided radiomitigation
survival after 7.5 Gy TBI [11, 16]: significant survival effect
radiation induced apoptosis (caspase 3/7 activity) [12]: dose dependent decrease in radiation induced apoptosis
half-life in liver microsomes [13]: shorter half-life than PD0332991
EC50 [14]: > 3000 nM
effect on proliferation (cells in S phase, EdU) of Rb-positive cell line [15]: inhibits
